One assay deals with T1, TLR7 (Homo sapiens, UniProt Q9NYK1).
T1 construct: expressed in transfected cells; host or cells: HEK/293 cells carrying TLR7 and an NF-kB luciferase reporter
T1 sequence (Q9NYK1 27-1049): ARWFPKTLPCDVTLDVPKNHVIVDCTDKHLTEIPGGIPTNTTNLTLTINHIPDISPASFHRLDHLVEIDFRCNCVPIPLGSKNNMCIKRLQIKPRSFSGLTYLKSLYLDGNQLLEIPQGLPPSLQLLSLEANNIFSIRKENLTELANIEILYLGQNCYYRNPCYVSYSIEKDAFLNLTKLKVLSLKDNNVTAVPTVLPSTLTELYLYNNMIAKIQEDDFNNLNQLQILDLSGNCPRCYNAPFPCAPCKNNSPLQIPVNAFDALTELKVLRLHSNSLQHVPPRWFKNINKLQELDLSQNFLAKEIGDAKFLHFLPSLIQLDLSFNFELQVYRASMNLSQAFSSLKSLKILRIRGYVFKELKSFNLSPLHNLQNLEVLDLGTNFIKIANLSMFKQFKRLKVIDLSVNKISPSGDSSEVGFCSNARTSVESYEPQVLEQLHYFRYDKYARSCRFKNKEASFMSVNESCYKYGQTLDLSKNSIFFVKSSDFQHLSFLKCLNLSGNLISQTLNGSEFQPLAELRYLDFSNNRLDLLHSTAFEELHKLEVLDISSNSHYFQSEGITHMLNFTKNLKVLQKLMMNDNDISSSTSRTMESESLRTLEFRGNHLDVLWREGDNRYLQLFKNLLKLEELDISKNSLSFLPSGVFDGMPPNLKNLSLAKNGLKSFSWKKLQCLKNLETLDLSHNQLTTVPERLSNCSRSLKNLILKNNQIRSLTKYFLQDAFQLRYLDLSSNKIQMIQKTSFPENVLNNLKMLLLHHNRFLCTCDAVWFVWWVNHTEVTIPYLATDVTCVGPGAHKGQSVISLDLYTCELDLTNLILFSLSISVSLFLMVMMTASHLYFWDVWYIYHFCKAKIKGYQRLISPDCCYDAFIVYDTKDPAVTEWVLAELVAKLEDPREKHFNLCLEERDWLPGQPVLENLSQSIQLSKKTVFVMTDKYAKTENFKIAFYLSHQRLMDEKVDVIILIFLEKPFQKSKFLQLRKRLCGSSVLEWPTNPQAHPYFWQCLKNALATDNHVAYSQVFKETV
The assay is described as follows: HEK/293 TLR7 Cell Assay. It is filed as cell-based. Particulars: TLR7/NFKb HEK cells, R848 agonist 10 uM final concentration, Steady-Glo readout; read-out: TLR7 potency. As to the method:
(§1) Example 389: HEK/293 TLR7 Cell Assay Into 384 CulturePlates (Corning 3765) was placed 5000 c/w of TLR7/NFKb HEK cells in 30 uL DMEM without Phenol red (gibco #31053-028) and 10% heat inactivated fetal bovine serum, 10% penicillin-streptomycin, and 2 mM L-Glutamine. The cells were incubated for 24 h at 37° C., 10% carbon dioxide and 90% relative humidity. 3 uL of controls, standards, and compounds were dispensed into wells, incubated for 30 min then 3 uL of R848 agonist (10 uM final concentration) was added in 20 mM Hepes. After incubation for 5 hours, they were allowed to stand at room temperature for 15 min. To this was added 10 uL of Steady-Glo substrate reagent and shake assay plate for 5 min at 1500 rpm. The assay plate was allowed to sit for 30 min at room temperature and then the plate was read on EnVision.

Another assay addresses T2, TLR8 (Homo sapiens, UniProt Q9NR97).
T2 construct: expressed in transfected cells; host or cells: HEK/293 reporter cells (NF-kB luciferase)
T2 sequence (Q9NR97 27-1041): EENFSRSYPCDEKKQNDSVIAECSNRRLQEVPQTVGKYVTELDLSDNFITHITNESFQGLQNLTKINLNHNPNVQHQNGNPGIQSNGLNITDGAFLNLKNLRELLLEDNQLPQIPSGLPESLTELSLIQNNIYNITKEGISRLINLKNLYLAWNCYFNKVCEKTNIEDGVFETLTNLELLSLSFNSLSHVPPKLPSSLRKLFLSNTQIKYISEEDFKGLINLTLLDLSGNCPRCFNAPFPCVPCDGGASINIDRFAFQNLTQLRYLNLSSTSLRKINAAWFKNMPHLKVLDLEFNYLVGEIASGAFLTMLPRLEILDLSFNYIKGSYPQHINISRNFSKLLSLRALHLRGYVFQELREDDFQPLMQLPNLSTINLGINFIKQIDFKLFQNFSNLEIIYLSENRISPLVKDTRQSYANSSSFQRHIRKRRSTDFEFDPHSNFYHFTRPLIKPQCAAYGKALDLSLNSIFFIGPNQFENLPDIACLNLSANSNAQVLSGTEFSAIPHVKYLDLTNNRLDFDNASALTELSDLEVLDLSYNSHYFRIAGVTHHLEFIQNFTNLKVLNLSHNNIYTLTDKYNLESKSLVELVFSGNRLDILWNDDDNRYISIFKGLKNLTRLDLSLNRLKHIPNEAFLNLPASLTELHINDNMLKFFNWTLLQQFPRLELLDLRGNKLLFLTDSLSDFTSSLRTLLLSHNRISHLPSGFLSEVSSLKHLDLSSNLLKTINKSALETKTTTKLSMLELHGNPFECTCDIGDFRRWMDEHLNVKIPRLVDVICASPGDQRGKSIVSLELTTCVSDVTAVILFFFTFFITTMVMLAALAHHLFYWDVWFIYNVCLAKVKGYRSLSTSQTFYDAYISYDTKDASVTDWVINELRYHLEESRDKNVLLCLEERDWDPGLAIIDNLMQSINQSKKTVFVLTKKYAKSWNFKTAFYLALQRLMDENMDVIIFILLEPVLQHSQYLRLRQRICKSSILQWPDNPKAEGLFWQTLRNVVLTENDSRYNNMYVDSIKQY
Description: HEK/293 TLR8 Cell Assay. The note with it: HEK cells, R848 agonist 30 uM final concentration, Steady-Glo readout; read-out: TLR8 potency. It counts as cell-based. As to the method: as §1, with “Example 390:” for “Example 389:”, “HEK/293 TLR8” for “HEK/293 TLR7”, “serum, 1%” for “serum, 10%”, “agonist (30” for “agonist (10”

The structures appear in SMILES notation.

Take `CC(C)(O)CNC(=O)[C@@H]1CN(c2ccc(C#N)c3nccnc23)C[C@H](C(F)(F)F)O1` (single isomer, unassigned) [Example 285]: the IC50 at TLR7 and on TLR8 was more than 150 nM each time.
As for `C[C@H](O)CNC(=O)[C@H]1CN(c2ccc(C#N)c3nccnc23)C[C@@H](C(F)(F)F)O1` (single isomer, unassigned) [Example 286], the IC50 on TLR7 and on TLR8 was more than 150 nM each time.
For the compound `C[C@H](O)CNC(=O)[C@@H]1CN(c2ccc(C#N)c3nccnc23)C[C@H](C(F)(F)F)O1` (single isomer, unassigned) [Example 287], the IC50 on TLR7 and at TLR8 was 75 to 150 nM throughout.
`C[C@@H]1CN(c2ccc(C#N)c3nccnc23)C[C@H](C(=O)NC[C@H]2COCCN2)O1` (single isomer, unassigned) [Example 296]: the IC50 on TLR7 and at TLR8 was less than 75 nM in each case.
Regarding `C[C@@H]1CN(c2ccc(C#N)c3nccnc23)C[C@H](C(=O)NC[C@@H]2COCCN2)O1` (single isomer, unassigned) [Example 297], the IC50 on TLR7 and at TLR8 was less than 75 nM in each case.
In the case of `N#Cc1ccc(N2C[C@@H](C(F)(F)F)O[C@@H](C(=O)N[C@H]3CNC[C@H]3F)C2)c2nccnc12` (single isomer, unassigned) [Example 303], the IC50 on TLR7 and on TLR8 was less than 75 nM throughout.
For `N#Cc1ccc(N2C[C@@H](C(=O)N[C@H]3CNC[C@H]3F)O[C@@H](C(F)(F)F)C2)c2nccnc12` (single isomer, unassigned) [Example 304], the IC50 at TLR7 and on TLR8 was less than 75 nM each time.
With `N#Cc1ccc(N2C[C@@H](C(F)(F)F)O[C@@H](C(=O)NCC3(F)CCNCC3)C2)c2nccnc12` (single isomer, unassigned) [Example 305], the IC50 at TLR7 and at TLR8 was less than 75 nM each time.
Regarding `N#Cc1ccc(N2C[C@@H](C(=O)NCC3(F)CCNCC3)O[C@@H](C(F)(F)F)C2)c2nccnc12` (single isomer, unassigned) [Example 306], the IC50 on TLR7 and on TLR8 was less than 75 nM in each case.
For the compound `N#Cc1ccc(N2C[C@@H](C(F)(F)F)O[C@@H](C(=O)NC[C@@]3(F)CCNC3)C2)c2nccnc12` (single isomer, unassigned) [Example 307], the IC50 on TLR7 and at TLR8 was less than 75 nM throughout.
For `N#Cc1ccc(N2C[C@@H](C(=O)NC[C@@]3(F)CCNC3)O[C@@H](C(F)(F)F)C2)c2nccnc12` (single isomer, unassigned) [Example 308], the IC50 at TLR7 and on TLR8 was less than 75 nM in each case.
As for `N#Cc1ccc(N2C[C@@H](C(F)(F)F)O[C@@H](C(=O)NC[C@]3(F)CCNC3)C2)c2nccnc12` (single isomer, unassigned) [Example 309], the IC50 at TLR7 and on TLR8 was less than 75 nM each time.
Consider `N#Cc1ccc(N2C[C@@H](C(=O)NC[C@]3(F)CCNC3)O[C@@H](C(F)(F)F)C2)c2nccnc12` (single isomer, unassigned) [Example 310], for which the IC50 at TLR7 and at TLR8 was less than 75 nM in each case.
Consider `N#Cc1ccc(N2C[C@@H](C(F)(F)F)O[C@@H](C(=O)N3C[C@@H](N)C4(CC4)C3)C2)c2nccnc12` (single isomer, unassigned) [Example 311], for which the IC50 at TLR7 and on TLR8 was less than 75 nM in each case.
`N#Cc1ccc(N2C[C@@H](C(=O)N3C[C@@H](N)C4(CC4)C3)O[C@@H](C(F)(F)F)C2)c2nccnc12` (single isomer, unassigned) [Example 312]: the values for the IC50 at TLR7 and on TLR8 were less than 75 nM and more than 150 nM, respectively.
On the same counts, the results for `N#Cc1ccc(N2C[C@@H](C(=O)NC[C@]3(F)CCNC3)O[C@@H](C(F)(F)F)C2)c2cccnc12` (single isomer, unassigned) [Example 313] are less than 75 nM and less than 75 nM.
For `N#Cc1ccc(N2C[C@@H](C(F)(F)F)O[C@@H](C(=O)NC[C@]3(F)CCNC3)C2)c2cccnc12` (single isomer, unassigned) [Example 314], the IC50 on TLR7 and on TLR8 was more than 150 nM throughout.
For `N#Cc1ncc(N2C[C@@H](C(F)(F)F)O[C@@H](C(=O)NCC3(F)CCNCC3)C2)c2cccnc12` (single isomer, unassigned) [Example 317], the IC50 is less than 75 nM at TLR7 and 75 to 150 nM at TLR8.
On the same counts, the results for `N#Cc1ncc(N2C[C@@H](C(=O)NCC3(F)CCNCC3)O[C@@H](C(F)(F)F)C2)c2cccnc12` (single isomer, unassigned) [Example 318] are more than 150 nM and more than 150 nM.
On the same counts, the results for `N#Cc1ncc(N2C[C@@H](C(=O)NC[C@]3(F)CCNC3)O[C@@H](C(F)(F)F)C2)c2cccnc12` (single isomer, unassigned) [Example 319] are less than 75 nM and less than 75 nM.
For `N#Cc1ncc(N2C[C@@H](C(F)(F)F)O[C@@H](C(=O)NC[C@]3(F)CCNC3)C2)c2cccnc12` (single isomer, unassigned) [Example 320], the IC50 at TLR7 and on TLR8 was more than 150 nM each time.
Take `C[C@@H]1CN(c2ccc(C#N)c3nccnc23)C[C@H](C(=O)N[C@H]2CCN(CC3CC3)C2)O1` (single isomer, unassigned) [Example 322]: the IC50 at TLR7 and on TLR8 was less than 75 nM each time.
Turning to `C[C@@H]1CN(c2ccc(C#N)c3nccnc23)C[C@H](C(=O)NC[C@H]2CN(C)CCO2)O1` (single isomer, unassigned) [Example 324], the IC50 at TLR7 and at TLR8 was less than 75 nM in each case.
